Results taken from publication PMC10046901, “Molecular Analysis of the Superior Efficacy of a Dual Epidermal Growth Factor Receptor (EGFR)-DNA-Targeting Combi-Molecule in Comparison with Its Putative Prodrugs 6-Mono-Alkylamino- and 6,6-Dialkylaminoquinazoline in a Human Osteosarcoma Xenograft Model” (Cells, 2023).
“Also recorded” adds a separate entry of the source.

Tests used:
U2-OS = test: cells; assay type: cell-based; conditions: Homo sapiens, U2OS, 120 h, read-out: IC50 growth inhibition
MG-63 = test: cells; assay type: cell-based; conditions: Homo sapiens, MG-63, 120 h, read-out: IC50 growth inhibition
MNNG/HOS = test: cells; assay type: cell-based; conditions: 120 h, read-out: IC50 growth inhibition
[1] = test system: Saos-2 osteosarcoma xenograft; test: Saos-2 xenograft tumor growth (caliper, CT); assay type: in vivo, NSG male mice; conditions: 80 mg/kg oral gavage every other day for 20 days; end of treatment
Protocol: Animal experiments were executed in accordance with a protocol approved by the McGill Institutional Animal Care Committee (McGill University Health Centre Research Institute and McGill University, Montreal, Canada). Xenografts of the tumors were obtained via unilateral and subcutaneous injection (5 × 10^6 cells in 100 µL of a PBS1x solution) into immunodeficient NSG male mice (N = 28; 8 weeks old; weight = 30 g; Charles River, Canada). The mice were maintained at optimal temperature (24 °C) and relative humidity (50%) on a 12/12-light/dark cycle with free access to water and food. The mice were monitored clinically every day; body weights were recorded and tumor volumes were measured with a caliper using the formula 4/3 π (length/2) (width/2)^2 every other day. Once tumors reached 68 mm^3, the mice were randomly divided into 4 groups: 1 was treated with ZR2002 (N = 7), another was treated with JS84 (N = 7), another was treated with JS61 (N = 7) and the last was treated with a vehicle (N = 7). […]
All PET/CT experiments were performed using nanoScan PET/CT for small animals (Mediso Medical Imaging Systems, Budapest, Hungary). […] The mice were kept awake for 45 min before the scans and weighed, and glycemia was measured in blood drawn from the caudal artery. […] Temperature and heart rate were monitored throughout the procedure using the Mediso system. […] The CT volume-of-interest (VOI) was drawn manually on the CT and PET co-registered images. ^18F-FDG accumulation was quantified as the mean standardized uptake value (SUV) between 20 and 30 min post-injection in a 3D volume-of-interest (VOI), which was named the metabolic volume (MV), delineated semi-automatically with iso-contours at a 40% threshold of the maximal SUV [30] in the tumor on PET/CT fusion slices using the PMOD software package v3.6 (PMOD Technologies Ltd., Zürich, Switzerland). In addition, another tumor volume-based parameter, called total lesion glycolysis (TLG), was calculated according to the product between the MV and the mean SUV. […]

[2] = Body weight / tolerance in xenografted mice; assay type: in vivo, NSG male mice; conditions: 80 mg/kg oral gavage every other day, 10 doses
Protocol: Animal experiments were executed in accordance with a protocol approved by the McGill Institutional Animal Care Committee (McGill University Health Centre Research Institute and McGill University, Montreal, Canada). Xenografts of the tumors were obtained via unilateral and subcutaneous injection (5 × 10^6 cells in 100 µL of a PBS1x solution) into immunodeficient NSG male mice (N = 28; 8 weeks old; weight = 30 g; Charles River, Canada). The mice were maintained at optimal temperature (24 °C) and relative humidity (50%) on a 12/12-light/dark cycle with free access to water and food. The mice were monitored clinically every day; body weights were recorded and tumor volumes were measured with a caliper using the formula 4/3 π (length/2) (width/2)^2 every other day. Once tumors reached 68 mm^3, the mice were randomly divided into 4 groups: 1 was treated with ZR2002 (N = 7), another was treated with JS84 (N = 7), another was treated with JS61 (N = 7) and the last was treated with a vehicle (N = 7). The mice were treated every other day for 20 days, receiving a total of 10 doses via oral gavage of 200 µL of a ZR2002, JS61 or JS84 solution at a dose of 80 mg/kg body weight or the vehicle (control group). The drugs were dissolved in a solution of 25% of alcohol (Greenfield, Toronto, ON, Canada), 25% of Cremophor (Sigma-Aldrich, St. Louis, MO, USA) and 50% of 0.9% NaCl (Sigma-Aldrich, St. Louis, MO, USA). The vehicle solution used the same mixture without any drug.

[3] = test system: Saos-2 osteosarcoma xenograft; test: 18F-FDG PET/CT imaging of tumors; assay type: in vivo, NSG male mice; conditions: day 22, 80 mg/kg oral; for total lesion glycolysis (TLG): FDG-PET
Protocol: All PET/CT experiments were performed using nanoScan PET/CT for small animals (Mediso Medical Imaging Systems, Budapest, Hungary). The radiotracer 2′-deoxy-2′-[^18F]fluoro-D-glucose (^18F-FDG) was inoculated via 1 bolus injection in the tail vein (5.3 MBq in 100 µL). All animals were starved from the night before the experiment. The mice were kept awake for 45 min before the scans and weighed, and glycemia was measured in blood drawn from the caudal artery. Afterward, each mouse was placed in the scanner, with the […] at the center of the field of view. Each PET/CT session consisted of a 30 min PET emission scan followed by a 10 min CT transmission scan. The PET/CT scans were conducted under anesthesia (isoflurane 2%; medical air (0.6 L/min)) delivered via a nose cone. Temperature and heart rate were monitored throughout the procedure using the Mediso system. Images were reconstructed using expectation maximization (EM) and ordered subset expectation maximization (OSEM), normalized, and corrected for scatter, dead time and decay. The CT volume-of-interest (VOI) was drawn manually on the CT and PET co-registered images. ^18F-FDG accumulation was quantified as the mean standardized uptake value (SUV) between 20 and 30 min post-injection in a 3D volume-of-interest (VOI), which was named the metabolic volume (MV), delineated semi-automatically with iso-contours at a 40% threshold of the maximal SUV [30] in the tumor on PET/CT fusion slices using the PMOD software package v3.6 (PMOD Technologies Ltd., Zürich, Switzerland). In addition, another tumor volume-based parameter, called total lesion glycolysis (TLG), was calculated according to the product between the MV and the mean SUV. Furthermore, at the end of the imaging sessions, the tumors were resected and processed for ex vivo analysis.

ɣ-H2AX phosphorylation = test: P-H2AX in tumor tissue (immunohistochemistry, Western blot); assay type: in vivo, human; conditions: tumors 3 h after last dose, 80 mg/kg, N = 4
Protocol: In order to study the drug pharmacokinetics, 1 last dose (the 11th dose) was administered 3 h prior to sacrifice and after a break of 5 days from the previous drug administration.
At the end of the study, the mice were sacrificed, and the plasma and tumors were collected. The plasma was stored at −80 °C, and the tumor tissues were transversely cut into 2 parts: 1 was immediately frozen in liquid nitrogen and stored at −80 °C for Western blots and LC-MS analysis; the other was fixed in 4% paraformaldehyde and used for histology.
The tumors were fixed for 36 h in 4% paraformaldehyde, transferred to 70% EtOH and paraffin-embedded. Sections 4 µm thick were deparaffinized, rehydrated and incubated for 20 min at 37 °C with anti-P-EGFR (1–100, ab40815, Abcam, Cambridge, UK) or anti-P-H2AX (1–100, sc-517348, Santa Cruz Biotechnology, Dallas, TX, USA), followed by secondary Ab incubation with OmniMap anti-Rb HRP (760–4311, Roche, Basel, Switzerland) at room temperature for 16 min, followed by the detection kit ChromoMap Kit (760–4304, Roche, Basel, Switzerland), and the slides were then counterstained with hematoxylin, dehydrated, cleared and cover-slipped. The slides were digitally scanned using an Aperio scanner scope XT.
The tumor tissue samples were smashed with liquid nitrogen into a mortar, and the tumor powders were transferred to cold RIPA 1x buffer with an anti-protease and anti-phosphatase inhibitor cocktail (Roche, Basel, Switzerland) in ice for 1 h and sonicated. After centrifugation, the proteins were quantified and mixed in Laemmli buffer (Sigma-Aldrich, St. Louis, MO, USA), maintaining the same concentration.
Cell lysates or tissue lysates were loaded onto 4–20% SDS-PAGE gels (mini-protean TGx stain-free, Bio-Rad, Hercules, CA, USA) and transferred to PVDF membranes that were pre-wetted with methanol. […] The quantification of the immunoblots was performed on digitalized images using ImageLab Software 6.1 (Bio-Rad, Hercules, CA, USA). […]

Compound | IC50 (U2-OS) | IC50 (MG-63) | IC50 (MNNG/HOS) | tumor size / growth inhibition vs vehicle (caliper and CT scan) [1] | tolerance / body weight throughout treatment [2] | CT tumor volume vs vehicle [3] | metabolic volume (MV) vs vehicle, FDG-PET [3] | total lesion glycolysis (TLG) [3] | ɣ-H2AX phosphorylation in tumors vs control (ɣ-H2AX phosphorylation)
ClCCNc1ccc2ncnc(Nc3cccc(Br)c3)c2c1 [ZR2002] | 0.08 ± 0.01 µM | 0.45 ± 0.08 µM | 0.31 ± 0.09 µM | significantly reduced | no significant weight loss | significant reduction | significant reduction | reduction in TLG | enhanced in comparison with the control, even if it was not statistically significant
ClCCN(CCCl)c1ccc2ncnc(Nc3cccc(Br)c3)c2c1 [JS61] | 1.39 ± 0.02 µM | 12.5 ± 0.61 µM | 5.86 ± 0.15 µM | no significant growth inhibition | no significant weight loss | – | – | – | low levels of H2AX phosphorylation
CN(CCCl)c1ccc2ncnc(Nc3cccc(Br)c3)c2c1 [JS84] | 0.18 ± 0.03 µM | 5.04 ± 0.98 µM | 0.88 ± 0.43 µM | no significant growth inhibition; also recorded: minor antitumor activity | no significant weight loss | not statistically different | not statistically different | reduction in TLG | low levels of H2AX phosphorylation
